Measured values published in patent US20040058989A1, “Pharmaceutical composition containing citalopram” (H. Lundbeck A/S, priority 2001, published 2004).

Test: Particle size distribution by laser diffraction (Sympatec Helos)
Assay type: physicochemical
Procedure: As used herein, “particle size distribution” means the distribution of equivalent spherical diameters as determined by laser diffraction in a Sympatec Helos equipment. The particle size distributions for fillers and uncompacted citalopram are determined at 1 bar dispersive pressure, whereas the particle size distributions for compacted granulates are determined at 0.2 bar dispersive pressure in order to avoid deaggregation of the granules leading to erroneous results. “Median particle size”, correspondingly, means the median of said particle size distribution.

[1] = Sympatec Helos, 1 bar dispersive pressure for fillers and uncompacted citalopram, 0.2 bar for compacted granulates

- Particle size distribution, quantile 10% [1]: 1.2 μm
- Particle size distribution, quantile 50% (median particle size) [1]: 14.0 μm
- Particle size distribution, quantile 90% [1]: 72.3 μm
- Particle size distribution, quantile 95% [1]: 97.0 μm
- Particle size (product of the process used for preparation of citalopram hydrobromide, general statement): 2-20 μm
SMILES: CN(C)CCCC1(c2ccc(F)cc2)OCc2cc(C#N)ccc21 (centres unmarked) [Citalopram HBr]
